One data set has as its system EMT-6 cancer cells. The experiment in a line: EMT-6 subcutaneous syngeneic mouse tumor model (Example 48). It is filed as in vivo, BALB/C mice. The note with it: (susp), 40 mg/kg, IP. The method, then:
(§1) This example describes in vivo studies that evaluated the anti-cancer efficacy of ARI-143, ARI-164, ARI-165, and ARI-186 in syngeneic mouse tumor models. Mice implanted subcutaneously with EMT-6 or Pan02 cancer cells were treated with ARI-143, ARI-164, ARI-165, ARI-186, or vehicle controls, as described below.
(§2) A monolayer culture of tumor cells was maintained in vitro in DMEM or RPMI1640 medium supplemented with 10% fetal bovine serum at 37° C. in an atmosphere of 5% CO2. Cells in exponential growth phase were harvested and quantitated by cell counter before tumor inoculation. The cell lines used are described in the table below.
(§3) Two subcutaneous syngeneic mouse tumor models were generated by innoculating female BALB/C or C57BL/6 mice with cancer cells at their right lower or front flank as detailed in the table below:
(§4) Each mouse was inoculated subcutaneously with tumor cells in 0.1 mL of PBS. Treatments were started when the mean tumor size reached approximately 80-120 mm^3 (around 100 mm^3). The administration of the test compounds and the animal number in each study group are shown in the study design. The date of tumor cell inoculation was denoted as day 0.
(§5) ARI-143, ARI-164, and ARI-165 were dissolved in DMSO at the final concentration of 26.7 mg/ml and stored at room temperature. In Pan02 studies of ARI-164 and ARI-186, both compounds were dissolved in 100% PEG400.
Randomization of animals was started when the mean tumor size reached approximately 90 mm^3 to form the mouse study groups. The randomization was-performed based on “Matched distribution” method using the multi-task method (StudyDirector™ software, version 3.1.399.19)/randomized block design. The mouse groups (ten in each group) were treated with vehicle (DMSO or PEG400) or the test compounds at a dose of 26-80 mg/kg by intraperitoneal (i.p.). injection, QD for 28 days or longer.
(§6) After tumor cell inoculation, the mice were checked daily for morbidity and mortality. During routine monitoring, the mice were checked for tumor growth and any effects of the treatment on behavior such as mobility, food and water consumption, body weight gain/loss (body weights were measured twice per week after randomization), eye/hair matting, and any other abnormalities. Mortality and observed clinical signs were recorded for individual mice in detail.
(§7) Tumor volumes were measured twice per week in two dimensions using a caliper, and the volume was expressed in mm^3 using the formula: V=(L×W×W)/2, where V is tumor volume, L is tumor length (the longest tumor dimension) and W is tumor width (the longest tumor dimension perpendicular to L). Dosing as well as tumor and body weight measurements was conducted in a Laminar Flow Cabinet. The body weights and tumor volumes were measured by using StudyDirector™ software (version 3.1.399.19). Dosing Holiday
(§8) Tumor growth inhibition percentage (TGI %) is an indicator for antitumor activity of a drug compound, and expressed as: TGI(%)=100×(1−T/C), where T and C are the mean tumor volume (or weight) of the treated and control groups, respectively, on a given day. Statistical analysis of the difference in mean tumor volume (MTV) among the groups was conducted using the data collected on the day when the MTV of the vehicle group reached the humane endpoints, so that TGI could be derived for all or most mice enrolled in the study.

The nature of data set [1]: In vivo pharmacokinetic studies in mice. Further details: species or system Balb/C mice. Particulars: for AUC(0-t): read-out: AUClast; for AUC(0-inf): read-out: AUCinf.
In the next data set the test system is Pan02 cancer cells. The experiment in a line: Pan02 subcutaneous syngeneic mouse tumor model (Example 48). It is filed as in vivo, C57BL/6 mice. Particulars: for TGI: 20 mg/kg, IP. The method, then: as §1, §2, §3, §4, §5
Randomization of animals was started when the mean tumor size reached approximately 90 mm^3 to form the mouse study groups. The randomization was-performed based on “Matched distribution” method using the multi-task method (StudyDirector™ software, version 3.1.399.19)/randomized block design. […]
as §6, §7, §8

Where [2] appears, read: Balb/C, mouse, plasma, mice, single 40 mg/kg oral dose.
Setting [3] is: mice, single 40 mg/kg oral dose.
The mark [4] stands for this setting: mouse, plasma, Balb/C mice, single dose IP 40 mg/kg.
[5] abbreviates: mouse, plasma, Balb/C mice, single dose IV 5 mg/kg.
Where [6] appears, read: mouse, plasma, Balb/C mice, single dose PO 10 mg/kg.
The mark [7] stands for this setting: mouse, plasma, Balb/C mice, single dose PO 40 mg/kg.

Where two headings read alike, the source gives them in different places. Marks after values point to notes of the source that are not given here.

On to `CCC(=O)c1csc(C(=O)c2c[nH]c3cc(F)ccc23)n1` [ARI-143, 1-(2-(6-fluoro-1H-indole-3-carbonyl)thiazol-4-yl)propan-1-one], for which the TGI in the data set with EMT-6 cancer cells (study day 6) is listed as 0.1%; in the data set on EMT-6 cancer cells (study day 10), −10.1%; with EMT-6 cancer cells (study day 13), 0.6%; with EMT-6 cancer cells (study day 17), 30.9%; with EMT-6 cancer cells (study day 20), 41.0%; in the data set with EMT-6 cancer cells (study day 24), 53.2%. Also, the TGI in the data set on EMT-6 cancer cells (study day 27) stood at 51.8%; with EMT-6 cancer cells (study day 31) it was 54.8%.
For `CC[C@H](N)c1csc(C(=O)c2c[nH]c3cc(F)ccc23)n1` [ARI-186, (S)-(4-(1-aminopropyl)thiazol-2-yl)(6-fluoro-1H-indol-3-yl)methanone], the “F*” value is reported as 81.4** % in data set [1] (Balb/C mice, single dose IP 40 mg/kg (value marked **)); 63.0% in data set [1] (Balb/C mice, single dose PO 10 mg/kg); 75.7** % in data set [1] (Balb/C mice, single dose PO 40 mg/kg (value marked **)). In data set [1] (setting [2]), this compound had an AUC of 73900 ng·h/mL. For the same compound, the bioavailability in data set [1] (setting [2]) was 75.7%. The half-life was about 7.6 h in data set [1] (Balb/C, mouse, plasma, mice, read-out: half-life (converted)); 7.62 h in data set [1] (mouse, plasma, Balb/C mice, single dose IV 5 mg/kg, read-out: T1/2 (converted)); 5.56 h in data set [1] (mouse, plasma, Balb/C mice, single dose PO 10 mg/kg, read-out: T1/2 (converted)). The “improvement in AUC over ARI-164 (fold)” value in data set [1] (setting [3]) came out at 24.6 ×. Further, the “improvement in oral bioavailability over ARI-164 (fold)” value in data set [1] (setting [3]) is 5.0 ×. Moreover, the Cmax stood at 6230 ng/mL in data set [1] (setting [4]), 2130 ng/mL in data set [1] (setting [5]), 1380 ng/mL in data set [1] (setting [6]) and 5000 ng/mL in data set [1] (setting [7]). In addition, the MRT last in data set [1] (setting [4]) was found to be 11.2 h; in data set [1] (setting [5]), 6.99 h; in data set [1] (setting [6]), 6.76 h; in data set [1] (setting [7]) it was 9.35 h. The Tmax in data set [1] (setting [4]) was found to be 0.5 h; in data set [1] (setting [5]), 0.083 h; in data set [1] (setting [6]) it was 2 h; in data set [1] (setting [7]) it was 2 h. The AUC(0-t) was 79400 ng·h/mL in data set [1] (setting [4]), 12200 ng·h/mL in data set [1] (setting [5]), 16100 ng·h/mL in data set [1] (setting [6]) and 73900 ng·h/mL in data set [1] (setting [7]). Also, the results for the MRT inf in data set [1] (setting [5]) and in data set [1] (setting [6]) were 9.55 h and 8.21 h, respectively. The same compound had a clearance in data set [1] (setting [5]) of 6.18 mL/min/kg. Also, the AUC(0-inf) in data set [1] (setting [5]) came to 13500 ng·h/mL; in data set [1] (setting [6]), 17000 ng·h/mL. Further, in data set [1] (mouse, plasma, Balb/C mice, single dose IV 5 mg/kg, read-out: Vss), the Vd was determined as 3.55 L/kg. The TGI with Pan02 cancer cells (study day 0) is −2.0%; with Pan02 cancer cells (study day 4) it was −13.0%; with Pan02 cancer cells (study day 7), −0.3%; in the data set on Pan02 cancer cells (study day 11) it was 27.0%; with Pan02 cancer cells (study day 14), 49.5%; in the data set with Pan02 cancer cells (study day 18) it was 61.9%. In the data set on Pan02 cancer cells (Pan02 tumors, 20 mpk i.p. QD, study day 18), the “tumor inhibition versus vehicle” value was 62%.

For the origin of these results see patent US11390621B2, “Chiral indole compounds and their use” (ARIAGEN, INC., priority 2019, dated 2022).
